Measurements reported in US9695171B2, “3,4-disubstituted-1 H-pyrrolo[2,3-b]pyridines and 4,5-disubstituted-7H-pyrrolo[2,3-c]pyridazines as LRRK2 inhibitors” (Pfizer Inc., priority 2013, dated 2017).
pEC50: −log10 of the molar value.

Target: T1, GST-tagged truncated LRRK2 (Homo sapiens, UniProt Q5S007)
T1 construct: GST-tagged truncated LRRK2 from Invitrogen (Cat # PV4874); GST; purchased Invitrogen PV4874
Assay: LRRK2 kinase assay (Lantha Screen)
Assay type: biochemical
Details: 1 mM ATP (head); a = geometric mean of >=4 determinations, b = single determination; read-out: LRRK2 LANTHA EC50 at 1 mM ATP; Geometric mean of 2-3 determinations unless otherwise indicated
Method: LRRK2 kinase activity was measured using Lantha Screen technology from Invitrogen. GST-tagged truncated LRRK2 from Invitrogen (Cat # PV4874) was incubated with a fluorescein-labeled peptide substrate based upon ezrin/radixin/moesin (ERM), also known as LRRKtide (Invitrogen cat # PR8976A), in the presence of a dose response of compound. Upon completion, the assay was stopped and detected with a terbium labeled anti-phospho-ERM antibody (Invitrogen, cat # PR8975A). […] The compound dose response was prepared by diluting compound to a top concentration of 3.16 mM in 100% DMSO and serial diluted by half-log in DMSO 11 times. Aliquots (3.5 μL) of the 100% DMSO dose response were mixed with 46.5 μL water then 1 μL of this mixture was added to the 3 μL substrate mix in the 384-well plate. The kinase reaction was started with 3 μL of a working solution of LRRK2 enzyme at a concentration of 4 μg/mL. […] The reaction was allowed to progress at room temperature for two hours and then stopped with the addition of 7 μL of detection buffer (20 mM Tris pH 7.6, 0.01% NP-40, 0.02% NaN3, 6 mM EDTA with 2 nM terbium labeled anti-phospho-ERM). After an incubation of 1 hour at room temperature, the plate was read on an Envision with an excitation wavelength of 340 nm and a reading emission at both 520 nm and 495 nm. The ratio of the 520 nm and 495 nm emission was used to analyze the data.

T1 sequence (Q5S007 970-2527 limits assumed): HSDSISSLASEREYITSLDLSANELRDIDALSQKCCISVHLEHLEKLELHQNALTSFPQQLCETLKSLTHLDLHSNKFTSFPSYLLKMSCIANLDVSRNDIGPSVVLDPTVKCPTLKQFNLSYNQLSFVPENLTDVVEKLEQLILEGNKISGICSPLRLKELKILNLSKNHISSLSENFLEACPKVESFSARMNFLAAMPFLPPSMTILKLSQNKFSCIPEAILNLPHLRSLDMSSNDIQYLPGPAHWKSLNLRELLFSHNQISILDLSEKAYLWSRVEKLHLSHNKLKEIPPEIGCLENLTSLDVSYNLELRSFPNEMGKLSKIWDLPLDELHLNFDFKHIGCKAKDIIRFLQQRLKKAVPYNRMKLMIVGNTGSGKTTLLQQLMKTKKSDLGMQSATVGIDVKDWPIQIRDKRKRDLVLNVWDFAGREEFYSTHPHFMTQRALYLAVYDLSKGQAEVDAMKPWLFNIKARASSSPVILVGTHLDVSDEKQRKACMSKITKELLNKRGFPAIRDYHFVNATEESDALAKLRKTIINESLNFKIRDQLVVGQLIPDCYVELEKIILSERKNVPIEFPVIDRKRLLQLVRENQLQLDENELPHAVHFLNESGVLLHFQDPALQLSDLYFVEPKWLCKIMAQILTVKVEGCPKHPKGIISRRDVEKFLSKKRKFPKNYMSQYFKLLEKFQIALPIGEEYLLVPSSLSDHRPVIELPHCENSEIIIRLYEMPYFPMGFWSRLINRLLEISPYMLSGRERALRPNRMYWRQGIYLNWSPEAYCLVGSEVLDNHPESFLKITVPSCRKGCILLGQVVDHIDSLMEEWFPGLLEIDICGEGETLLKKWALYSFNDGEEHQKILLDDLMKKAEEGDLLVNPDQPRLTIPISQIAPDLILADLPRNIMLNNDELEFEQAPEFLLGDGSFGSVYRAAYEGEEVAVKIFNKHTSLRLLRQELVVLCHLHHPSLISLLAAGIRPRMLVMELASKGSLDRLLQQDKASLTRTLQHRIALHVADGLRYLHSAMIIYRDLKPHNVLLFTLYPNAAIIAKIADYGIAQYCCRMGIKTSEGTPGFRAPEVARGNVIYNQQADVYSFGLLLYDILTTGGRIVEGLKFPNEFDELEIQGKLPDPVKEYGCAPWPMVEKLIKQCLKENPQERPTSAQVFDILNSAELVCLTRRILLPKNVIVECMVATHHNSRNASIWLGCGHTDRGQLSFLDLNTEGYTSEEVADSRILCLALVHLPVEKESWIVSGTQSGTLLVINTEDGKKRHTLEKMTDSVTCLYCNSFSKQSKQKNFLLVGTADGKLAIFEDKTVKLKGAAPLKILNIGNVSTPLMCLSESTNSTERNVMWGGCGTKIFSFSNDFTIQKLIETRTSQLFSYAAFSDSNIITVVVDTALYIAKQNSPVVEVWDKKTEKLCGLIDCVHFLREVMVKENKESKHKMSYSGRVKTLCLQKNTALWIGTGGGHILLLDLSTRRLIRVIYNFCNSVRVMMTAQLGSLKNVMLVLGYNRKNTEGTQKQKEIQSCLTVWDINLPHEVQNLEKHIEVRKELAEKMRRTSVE

Compared with `Cc1[nH]c2nccc(N3CCOCC3)c2c1-c1cccc(Cl)c1` [Example 52, 3-(3-chlorophenyl)-2-methyl-4-(morpholin-4-yl)-1H-pyrrolo[2,3-b]pyridine], `Cc1[nH]c2nccc(N3CCOCC3)c2c1-c1cccc(F)c1` [Example 55, 3-(3-fluorophenyl)-2-methyl-4-(morpholin-4-yl)-1H-pyrrolo[2,3-b]pyridine] is 0.20 log units higher in pEC50: 6.80 for the first, 7.00 for the second.

Compared with `Cc1[nH]c2nccc(N3CCOCC3)c2c1-c1ccccc1` [Example 53, 2-methyl-4-(morpholin-4-yl)-3-phenyl-1H-pyrrolo[2,3-b]pyridine], `Cc1[nH]c2nccc(N3CCOCC3)c2c1-c1ccccc1F` [Example 54, 3-(2-fluorophenyl)-2-methyl-4-(morpholin-4-yl)-1H-pyrrolo[2,3-b]pyridine] is 0.34 log units higher in pEC50: 6.70 for the first, 7.04 for the second.

`Cc1[nH]c2nccc(N3CCOCC3)c2c1-c1cc(F)cc(C#N)c1` [Example 56, 3-fluoro-5-[2-methyl-4-(morpholin-4-yl)-1H-pyrrolo[2,3-b]pyridin-3-yl]benzonitrile] and `N#Cc1cccc(-c2c[nH]c3nccc(N4CCCOCC4)c23)c1` [Example 69, 3-[4-(1,4-oxazepan-4-yl)-1H-pyrrolo[2,3-b]pyridin-3-yl]benzonitrile] are within 0.2 log units of each other in pEC50: 6.76 for the first, 6.82 for the second.

`Cn1cc(-c2c[nH]c3nccc(N4CCCC(O)C4)c23)cn1` (stereo not drawn) [Example 57, 1-[3-(1-methyl-1H-pyrazol-4-yl)-1H-pyrrolo[2,3-b]pyridin-4-yl]piperidin-3-ol] and `Cn1cc(-c2c[nH]c3nccc(N4CCCC(CO)C4)c23)cn1` (stereo not drawn) [Example 60, {1-[3-(1-methyl-1H-pyrazol-4-yl)-1H-pyrrolo[2,3-b]pyridin-4-yl]piperidin-3-yl}methanol] are within 0.2 log units of each other in pEC50: 7.04 for the first, 6.85 for the second.

Going from `C[C@H]1CN(c2ccnc3[nH]cc(-c4cnn(C)c4)c23)CCO1` [Example 58, 4-[(2S)-2-methylmorpholin-4-yl]-3-(1-methyl-1H-pyrazol-4-yl)-1H-pyrrolo[2,3-b]pyridine] to `Cn1cc(-c2c[nH]c3nccc(N4CCSCC4)c23)cn1` [Example 63, 3-(1-methyl-1H-pyrazol-4-yl)-4-(thiomorpholin-4-yl)-1H-pyrrolo[2,3-b]pyridine], the pEC50 rises from 6.77 to 7.14 (0.37 log units).

`Cn1cc(-c2c[nH]c3nccc(N4CCCC(F)(F)C4)c23)cn1` [Example 59, 4-(3,3-difluoropiperidin-1-yl)-3-(1-methyl-1H-pyrazol-4-yl)-1H-pyrrolo[2,3-b]pyridine] and `Cn1cc(-c2c[nH]c3nccc(N4CCC(F)(F)C4)c23)cn1` [Example 64, 4-(3,3-difluoropyrrolidin-1-yl)-3-(1-methyl-1H-pyrazol-4-yl)-1H-pyrrolo[2,3-b]pyridine] are the same in pEC50: 6.71 for the first, 6.71 for the second.

`Cn1cc(-c2c[nH]c3nccc(N4C[C@H]5CC[C@@H](C4)O5)c23)cn1` [Example 61, 3-(1-methyl-1H-pyrazol-4-yl)-4-(8-oxa-3-azabicyclo[3.2.1]oct-3-yl)-1H-pyrrolo[2,3-b]pyridine] and `CN(C)c1ccnc2[nH]cc(-c3cnn(C)c3)c12` [Example 62, N,N-dimethyl-3-(1-methyl-1H-pyrazol-4-yl)-1H-pyrrolo[2,3-b]pyridin-4-amine] are within 0.2 log units of each other in pEC50: 6.66 for the first, 6.73 for the second.

Going from `N#Cc1cccc(-c2c[nH]c3nccc(C4=CCOCC4)c23)c1` [Example 65, 3-[4-(3,6-dihydro-2H-pyran-4-yl)-1H-pyrrolo[2,3-b]pyridin-3-yl]benzonitrile] to `N#Cc1cccc(-c2c[nH]c3nccc(N4CCCC(O)C4)c23)c1` (stereo not drawn) [Example 66, 3-[4-(3-hydroxypiperidin-1-yl)-1H-pyrrolo[2,3-b]pyridin-3-yl]benzonitrile], the pEC50 falls from 8.14 to 7.61 (0.53 log units).

`COCC1CN(c2ccnc3[nH]cc(-c4cccc(C#N)c4)c23)CCO1` (stereo not drawn) [Example 67, 3-{4-[2-(methoxymethyl)morpholin-4-yl]-1H-pyrrolo[2,3-b]pyridin-3-yl}benzonitrile] and `c1cc(N2CCOCC2)c2c(-c3cn[nH]c3)c[nH]c2n1` [Example 68, 4-(morpholin-4-yl)-3-(1H-pyrazol-4-yl)-1H-pyrrolo[2,3-b]pyridine] are within 0.2 log units of each other in pEC50: 7.66 for the first, 7.52 for the second.
